The values that follow come from paper PMC11412900 (Molecular Psychiatry, 2024).

SMILES strings stand for the structures.

The target in this experiment is T1, SERT (Homo sapiens, UniProt P31645).
T1 construct: YFP (yellow-fluorescent protein); expressed in transfected cells
In words: Superfusion release assay of [3H]5-HT. In kind it is cell-based. The method, then:
Concentration-response release assays were performed using a superfusion assay. […] Afterwards, cells were manually and gently washed once with KHB, and superfused with KHB at a rate of 0.5 mL/min for 10 min at room temperature (RT), to establish a stable basal release. Three 2 min-fractions of basal release were collected in 10 mL counting vials before exposing cells to various concentrations of 5-MeO-pyr-T (five fractions). Subsequently, the cells were superfused with 1% SDS for three final fractions to determine total radioactivity present at cells at the end of the experiment. 2 mL of scintillation cocktail was added to each vial, radioactivity was measured and expressed as percentage of released radioactivity in relation to the total radioactivity present at the beginning of that fraction. Experiments were performed per triplicate for five independent experiments.

T1 sequence (P31645 whole entry): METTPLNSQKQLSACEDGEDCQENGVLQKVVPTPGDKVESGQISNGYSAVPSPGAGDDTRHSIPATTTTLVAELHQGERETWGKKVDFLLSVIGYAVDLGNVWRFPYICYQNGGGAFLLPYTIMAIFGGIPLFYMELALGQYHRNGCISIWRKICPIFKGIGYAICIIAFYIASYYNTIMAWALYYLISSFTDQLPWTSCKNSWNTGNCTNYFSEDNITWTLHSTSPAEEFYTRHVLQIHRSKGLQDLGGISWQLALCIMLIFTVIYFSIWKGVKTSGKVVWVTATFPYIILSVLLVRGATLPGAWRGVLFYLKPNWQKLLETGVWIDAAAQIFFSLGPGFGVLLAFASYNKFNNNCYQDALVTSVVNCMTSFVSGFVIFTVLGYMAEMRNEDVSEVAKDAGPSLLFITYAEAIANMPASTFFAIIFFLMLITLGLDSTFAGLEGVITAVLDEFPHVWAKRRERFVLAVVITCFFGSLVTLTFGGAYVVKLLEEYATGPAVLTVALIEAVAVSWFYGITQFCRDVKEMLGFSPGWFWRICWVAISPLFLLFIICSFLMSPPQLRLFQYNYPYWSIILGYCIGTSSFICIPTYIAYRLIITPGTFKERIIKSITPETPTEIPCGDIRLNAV

The EC50 is the midpoint of the concentration-response curve. For `COc1ccc2[nH]cc(CCN3CCCC3)c2c1` [5-MeO-pyr-T], the “5-HT releaser type” value (peak of efflux vs positive control pCA) is listed as 5-HT partial releaser. Further, the concentration for a half-maximal effect (EC50) (read-out: 5-HT release EC50, superfusion, N = 5) was determined as 5.7 ± 1.59 µM.
